# Measured values reported in PMC3678964 (Journal of medicinal chemistry, 2012).
# Biological target: T1, transmembrane domain-deleted rat FAAH (ΔTM rFAAH) (Rattus norvegicus, UniProt P97612)
# T1 sequence (P97612 30-579 limits assumed): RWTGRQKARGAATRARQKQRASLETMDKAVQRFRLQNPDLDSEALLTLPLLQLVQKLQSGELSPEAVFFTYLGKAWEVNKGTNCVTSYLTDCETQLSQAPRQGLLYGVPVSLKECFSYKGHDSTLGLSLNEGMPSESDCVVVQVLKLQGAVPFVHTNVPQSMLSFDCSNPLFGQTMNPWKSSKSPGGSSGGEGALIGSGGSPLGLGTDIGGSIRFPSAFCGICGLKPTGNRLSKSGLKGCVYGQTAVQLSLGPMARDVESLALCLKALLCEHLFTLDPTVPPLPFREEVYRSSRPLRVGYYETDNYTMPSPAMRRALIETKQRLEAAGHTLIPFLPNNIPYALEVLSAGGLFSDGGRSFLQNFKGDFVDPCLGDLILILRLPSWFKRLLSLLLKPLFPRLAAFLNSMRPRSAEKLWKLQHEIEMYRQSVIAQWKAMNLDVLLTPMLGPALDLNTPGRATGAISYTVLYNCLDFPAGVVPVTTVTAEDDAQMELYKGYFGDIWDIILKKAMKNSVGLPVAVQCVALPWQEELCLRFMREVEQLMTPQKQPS
# Details: phenyl ring substitution of phenylheptyl template 11e
row,Structure (SMILES),increase in FAAH inhibitory potency relative to 11e
1,"O=S(=O)(F)CCCCCCCc1ccccc1OCc1ccccc1 [20c, 7-(2-Benzyloxyphenyl)heptanesulfonyl fluoride]",9-10 fold
2,"O=S(=O)(F)CCCCCCCc1cccc(O)c1 [21b, 7-(3-Hydroxyphenyl)heptanesulfonyl fluoride]",15- to 31 fold
3,"O=S(=O)(F)CCCCCCCc1ccccc1O [21c, 7-(2-Hydroxyphenyl)heptanesulfonyl fluoride]",15- to 31 fold
